20 compounds from patent US10035790B2, “RORγ modulators” (BRISTOL-MYERS SQUIBB COMPANY, priority 2012, dated 2018) can be followed below.

For one assay, the target named is T1, ligand binding domain of human RORγ (A262-S507) (Homo sapiens, UniProt P51449).
T1 construct: made in house; host or cells: E. coli
T1 sequence (P51449 262-507): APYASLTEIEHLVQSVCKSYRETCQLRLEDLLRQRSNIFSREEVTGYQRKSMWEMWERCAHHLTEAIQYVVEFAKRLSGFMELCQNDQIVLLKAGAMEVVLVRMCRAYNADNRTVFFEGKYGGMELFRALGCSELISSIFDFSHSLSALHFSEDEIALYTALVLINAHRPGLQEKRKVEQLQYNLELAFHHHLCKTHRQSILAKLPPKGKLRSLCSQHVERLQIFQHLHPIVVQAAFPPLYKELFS
Briefly: General RORγ SPA binding assay (competition with [3H]25-hydroxycholesterol). Conditions: IC50, RORγ SPA binding assay, inhibition of [3H]25-hydroxycholesterol binding. The method in brief: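 N-terminally His-tagged protein was expressed in E. coli and nickel-purified. Then 50 nM protein was preincubated with compound for 15 min at room temperature in PBS with 0.5% fatty acid free BSA, followed by radioligand for 15 min and copper His-tag SPA beads for 30 min. IC50 came from percent inhibition of binding.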
`Cc1nc(C)c(C(=O)NCc2ccnc(C(F)(F)F)n2)c(C2CCN(C(=O)Oc3ccccc3F)CC2)n1` [Compound A124, 2-Fluorophenyl 4-{2,6-dimethyl-5-[({[2-(trifluoromethyl)pyrimidin-4-yl]methyl}amino)carbonyl]pyrimidin-4-yl}piperidine-1-carboxylate] displayed an IC50 of 11.4 nM.

Staying with this assay, now noted: RORγ SPA binding assay, inhibition of [3H]25-hydroxycholesterol binding; read-out: IC50.
Regarding `COc1ccc(CNc2ncc(C(C)(O)COc3ccnc(C(F)(F)F)n3)c(C3CCN(C(=O)Nc4c(F)cccc4F)CC3)n2)c(OC)c1` (centres unmarked) [Compound D37, 4-[2-({[2,4-Bis(methyloxy)phenyl]methyl}amino)-5-(1-hydroxy-1-methyl-2-{[2-(trifluoromethyl)pyrimidin-4-yl]oxy}ethyl)pyrimidin-4-yl]-N-(2,6-difluorophenyl)piperidine-1-carboxamide], the IC50 worked out at 112 nM.
Regarding `Cc1cc(C)cc(CCC(C)(O)c2cnc(C)nc2C2CCN(C(=O)Cc3c(F)cccc3F)CC2)c1` (centres unmarked) [Compound D15, 2-(2,6-Difluorophenyl)-1-(4-(5-(4-(3,5-dimethylphenyl)-2-hydroxybutan-2-yl)-2-methylpyrimidin-4-yl)piperidin-1-yl)ethanone], the IC50 worked out at 33.9 nM.
The same measure, in the same setting: the value for `COc1ncc(C(C)(O)COc2ccnc(C(F)(F)F)n2)c(C2CCN(C(=O)Nc3c(F)cccc3F)CC2)n1` (centres unmarked) [Compound D44, N-(2,6-Difluorophenyl)-4-[5-(1-hydroxy-1-methyl-2-{[2-(trifluoromethyl)pyrimidin-4-yl]oxy}ethyl)-2-(methyloxy)pyrimidin-4-yl]piperidine-1-carboxamide] was 4.6 nM; that for `Cc1ncc(C(C)(C)CNc2nccc(C(F)(F)F)n2)c(C2CCN(C(=O)Cc3c(F)cccc3F)CC2)n1` [Compound F2, 2-(2,6-difluorophenyl)-1-(4-(2-methyl-5-(2-methyl-1-((4-(trifluoromethyl)pyrimidin-2-yl)amino)propan-2-yl)pyrimidin-4-yl)piperidin-1-yl)ethanone] was 26 nM.
Consider `COc1cccc(CC(=O)N2CCC(c3nc(C)ncc3C(=O)NCc3cc(C)cc(C)c3)CC2)c1` [Compound A39, N-(3,5-dimethylbenzyl)-4-(1-(2-(3-methoxyphenyl)acetyl)piperidin-4-yl)-2-methylpyrimidine-5-carboxamide], for which the 50% inhibitory concentration (IC50) worked out at 5450 nM.
Regarding `Cc1ncc(C(O)(CNC(=O)CCO)COc2cccc(C(F)(F)F)n2)c(C2CCN(C(=O)Nc3c(F)cccc3F)CC2)n1` (centres unmarked) [Compound N42, N-(2,6-Difluorophenyl)-4-(5-{1-hydroxy-2-[(3-hydroxypropanoyl)amino]-1-({[6-(trifluoromethyl)pyridin-2-yl]oxy}methyl)ethyl}-2-methylpyrimidin-4-yl)piperidine-1-carboxamide], the IC50 turned out to be 183 nM.
As for `CSc1ncc(C(C)(O)COc2cccc(C(F)(F)F)n2)c(C2CCN(C(=O)Nc3c(F)cccc3F)CC2)n1` (centres unmarked) [Compound D26, N-(2,6-Difluorophenyl)-4-[5-(1-hydroxy-1-methyl-2-{[6-(trifluoromethyl)pyridin-2-yl]oxy}ethyl)-2-(methylthio)pyrimidin-4-yl]piperidine-1-carboxamide], the 50% inhibitory concentration (IC50) stood at 12.6 nM.
Take `Cc1ncc(C(C)(C)CNc2cccc(C(F)(F)F)n2)c(C2CCN(C(=O)Cc3c(F)cccc3F)CC2)n1` [Compound F3, N-[2-(4-{1-[(2,6-difluorophenyl)acetyl]piperidin-4-yl}-2-methylpyrimidin-5-yl)-2-methylpropyl]-6-(trifluoromethyl)pyridin-2-amine]: the IC50 worked out at 3.3 nM.
For `CC(C)Oc1ncc(C(=O)NCc2cccc(Cl)c2)c(C2CCN(C(=O)Cc3c(F)cccc3F)CC2)n1` [Compound A95, N-(3-chlorobenzyl)-4-(1-(2-(2,6-difluorophenyl)acetyl)piperidin-4-yl)-2-isopropoxypyrimidine-5-carboxamide], the concentration for half-maximal inhibition (IC50) came out at 175 nM.
Turning to `COc1cccc(CNC(=O)c2cnc(C)nc2C2CCN(C(=O)Cc3c(F)cccc3F)CC2)c1` [Compound A58, 4-(1-(2-(2,6-difluorophenyl)acetyl)piperidin-4-yl)-N-(3-methoxybenzyl)-2-methylpyrimidine-5-carboxamide], the IC50 was found to be 24.3 nM.
As to `Cc1cc(C)cc(CNC(=O)c2cnc(C)nc2C2CCN(C(=O)Nc3ccccc3F)CC2)c1` [Compound A106, N-(3,5-Dimethylbenzyl)-4-(1-((2-fluorophenyl)carbamoyl)piperidin-4-yl)-2-methylpyrimidine-5-carboxamide], the IC50 is 270 nM.
On the same count and under the same terms, the value for `Cc1cc(C)cc(CNC(=O)c2cnc(C)nc2C2CCN(C(=O)Cc3cccc(F)c3)CC2)c1` [Compound A22, N-(3,5-dimethylbenzyl)-4-(1-(2-(3-fluorophenyl)acetyl)piperidin-4-yl)-2-methylpyrimidine-5-carboxamide] was 235 nM; that for `CC(=O)Nc1ncc(C(C)(O)COc2ccnc(C(F)(F)F)n2)c(C2CCN(C(=O)Cc3c(F)cccc3F)CC2)n1` (centres unmarked) [Compound D33, N-[4-{1-[(2,6-Difluorophenyl)acetyl]piperidin-4-yl}-5-(1-hydroxy-1-methyl-2-{[2-(trifluoromethyl)pyrimidin-4-yl]oxy}ethyl)pyrimidin-2-yl]acetamide] was 14 nM; that for `[2H]C([2H])(C(=O)N1CCC(c2nc(C)nc(C)c2-c2nnc(-c3ccnc(C(F)(F)F)n3)o2)CC1)c1c(F)cccc1F` [Compound C38, 4-{1-[(2,6-Difluorophenyl)acetyl-2,2-d2]piperidin-4-yl}-2,6-dimethyl-5-{5-[2-(trifluoromethyl)pyrimidin-4-yl]-1,3,4-oxadiazol-2-yl}pyrimidine] was 8 nM.
With `Cc1nc(C)c(-c2nnc(-c3cccc(C(F)(F)F)n3)o2)c(C2CCN(C(=O)Cc3c(F)cccc3F)CC2)n1` [Compound C6, 2-(2,6-difluorophenyl)-1-(4-(2,6-dimethyl-5-(5-(6-(trifluoromethyl)pyridin-2-yl)-1,3,4-oxadiazol-2-yl)pyrimidin-4-yl)piperidin-1-yl)ethanone], the half-inhibitory concentration (IC50) came to 5.2 nM.
Turning to `Cc1ncc(C(N)(COc2cccc(C(F)(F)F)n2)C(N)=O)c(C2CCN(C(=O)Nc3c(F)cccc3F)CC2)n1` (centres unmarked) [Compound N49, 4-{5-[1,2-Diamino-2-oxo-1-({[6-(trifluoromethyl)pyridin-2-yl]oxy}methyl)ethyl]-2-methylpyrimidin-4-yl}-N-(2,6-difluorophenyl)piperidine-1-carboxamide], the IC50 came to 176 nM.
For the compound `Cc1ncc(C(F)(F)COc2cccc(C(F)(F)F)n2)c(C2CCN(C(=O)Nc3c(F)cccc3C(F)(F)F)CC2)n1` [Compound N15, 4-[5-(1,1-Difluoro-2-{[6-(trifluoromethyl)pyridin-2-yl]oxy}ethyl)-2-methylpyrimidin-4-yl]-N-[2-fluoro-6-(trifluoromethyl)phenyl]piperidine-1-carboxamide], the IC50 worked out at 10.9 nM.
As for `Cc1cc(C)cc(CCCc2cnc(C)nc2C2CCN(C(=O)Cc3c(F)cccc3F)CC2)c1` [Compound J3, 2-(2,6-Difluorophenyl)-1-(4-(5-(3-(3,5-dimethylphenyl)propyl)-2-methylpyrimidin-4-yl)piperidin-1-yl)ethanone], the concentration for half-maximal inhibition (IC50) turned out to be 7.7 nM.
As for `Cc1ncc(C(F)(F)CNc2nccc(C(F)(F)F)n2)c(C2CCN(C(=O)Cc3c(F)cccc3F)CC2)n1` [Compound N21, N-[2-(4-{1-[(2,6-Difluorophenyl)acetyl]piperidin-4-yl}-2-methylpyrimidin-5-yl)-2,2-difluoroethyl]-4-(trifluoromethyl)pyrimidin-2-amine], the IC50 worked out at 14.2 nM.
